Results from patent US12441751B2, “Metabolic labeling and molecular enhancement of biological materials using bioorthogonal reactions” (priority 2016, dated 2025).
“Also recorded” adds a separate entry of the source.

Tests used:
[1] = system: decellularized scaffolds of the rat carotid artery, heart, liver, kidney and skin; assay: In vivo metabolic labeling of ECM of other rat organs/tissues
Protocol: Male Sprague-Dawley rats (100-125 g, Charles River Laboratories) was administered with metabolic labeling reagents (Ac4GalNAz, Ac4GlcNAz or Ac4ManNAz) (30 mg/day, Click Chemistry Tools) via intraperitoneal injection daily for three days. […] Full-thickness skin grafts were harvested from the abdomen of the animal and decellularized by immersion with agitation in 1% SDS. Decellularized organ and tissue scaffolds were washed sequentially with distilled water, 1% Triton X and PBS.
(§1) All samples were fixed with 4% paraformaldehyde (Boston BioProducts), paraffin-embedded, and sectioned at 5-μm thickness. Following deparaffinization, rehydration and antigen retrieval using Antigen Unmasking Solution (Vector Laboratories), the sections were processed for either on-section click reaction or regular histological staining. For on-section click reaction, sections of acellular organ scaffolds derived from in vivo or ex vivo metabolic engineering were incubated with Biotin-Alkyne click reaction mix, with and without copper (II) sulfate, for 1 hour at room temperature, followed by extensive washing with PBS. For regular histological staining of biotin and Laminin, the sections were incubated with Rabbit-anti-Laminin antibody (Abcam, ab11575, 1:200) overnight at 4° C., followed by staining with Alexa Fluor 488-conjugated Donkey-anti-Rabbit antibody (A-21206, 1:500) and Alexa Fluor 647-conjugated Streptavidin (Life Technologies, S-32357, 1:500). Images were acquired using a Nikon Eclipse TE200 microscope and NIS-Elements imaging software. The fluorescence intensity of Azide-Biotin-Streptavidin and Laminin staining was quantified using ImageJ (NIH).
For metabolic engineering of organs/tissues in vivo in the rat model, azide-labeled sugars (300 mg/kg body weight in 70% DMSO) were administered through intraperitoneal injection daily. One day after the last azide-labeled sugar administration, organs/tissues were harvested and perfusion decellularized (See FIGS. 1 and 13). The presence of azide labeling in the decellularized scaffolds were evaluated by performing copper-catalyzed click reaction. […]

[2] = system: decellularized rat lung scaffolds; assay: In vivo metabolic labeling of rat lung ECM with azide-labeled sugars
Protocol: All animal experiments were approved by the Massachusetts General Hospital Institutional Animal Care and Use Committee and performed in compliance with the Animal Welfare Act. Male Sprague-Dawley rats (100-125 g, Charles River Laboratories) was administered with metabolic labeling reagents (Ac4GalNAz, Ac4GlcNAz or Ac4ManNAz) (30 mg/day, Click Chemistry Tools) via intraperitoneal injection daily for three days. […] Decellularized organ and tissue scaffolds were washed sequentially with distilled water, 1% Triton X and PBS.
as §1
To conjugate Biotin-Alkyne onto the azide-labeled acellular lung ECM for Western blot analysis, a small piece of lung tissue was homogenized with gentleMACS Dissociator (Miltenyi Biotec) in PBS, and incubated with 1 ml Biotin-Alkyne click reaction mix for 1 hour at room temperature, followed by extensive washing in PBS. The ECM proteins from the clicked lung tissue was extracted using urea buffer as described below. […] Following BCA quantification, the protein samples were analyzed using SDS-PAGE under reducing condition, transferred to nitrocellulose blotting membranes, and incubated with primary antibodies overnight at 4° C., followed by incubation with HRP-conjugated secondary antibodies for 1 hour at room temperature before autoradiography. […]

rat lung ECM = assay: Ex vivo metabolic engineering of rat lung ECM; settings: 50 μM, one day, bioreactor perfusion 5 ml/min, Cu(I) catalyst in click with biotin-alkyne
Protocol: For ex vivo metabolic engineering of the rat lung, the lung was freshly harvested from a male Sprague-Dawley rat (100-125 g). The isolated rat lung was cultured in 100 ml of DMEM/F12 medium containing 10% fetal bovine serum (DMEM/F12-FBS), with the supplementation of Ac4GalNAz (50 μM) or DMSO (0.1%), for 24 hours in a bioreactor under constant rate perfusion (5 ml/min) through the PA, followed by perfusion decellularization as described above.
All samples were fixed with 4% paraformaldehyde (Boston BioProducts), paraffin-embedded, and sectioned at 5-μm thickness. Following deparaffinization, rehydration and antigen retrieval using Antigen Unmasking Solution (Vector Laboratories), the sections were processed for either on-section click reaction or regular histological staining. […] For regular histological staining of biotin and Laminin, the sections were incubated with Rabbit-anti-Laminin antibody (Abcam, ab11575, 1:200) overnight at 4° C., followed by staining with Alexa Fluor 488-conjugated Donkey-anti-Rabbit antibody (A-21206, 1:500) and Alexa Fluor 647-conjugated Streptavidin (Life Technologies, S-32357, 1:500). […] The fluorescence intensity of Azide-Biotin-Streptavidin and Laminin staining was quantified using ImageJ (NIH). […]
The presence of azide labeling in the decellularized scaffolds were evaluated by performing copper-catalyzed click reaction. […]

[3] = system: acellular porcine lung ECM; assay: Ex vivo metabolic engineering of porcine left lung ECM; settings: 50 μM, one day, perfusion 300 ml/min
Protocol: For ex vivo metabolic engineering of the porcine lung, the left lung was freshly isolated from a male Yorkshire swine (18-20 kg, Tufts University). The isolated porcine left lung was cultured DMEM/F12-FBS medium, with the supplementation of Ac4GalNAz (50 μM) or DMSO (0.1%), for 24 hours in a bioreactor under constant rate perfusion (300 ml/min) through the left main PA. 3 L of medium was initially used and was refreshed once with another 2 L of medium after the initial 16 hours of culture. A parallel oxygenation loop was used during the culture at a flow rate of 150 ml/min. Following culture, the porcine left lung was decellularized by sequential single-pass perfusion through the left main PA with 0.5% SDS, distilled water, 1% Triton X and PBS, adapted from a previously described method (Zhou, H. et al. Bioengineering Human Lung Grafts on Porcine Matrix. Annals of Surgery Publish Ahead of Print (2017)). […] The fluorescence intensity of Azide-Biotin-Streptavidin and Laminin staining was quantified using ImageJ (NIH). […] Following BCA quantification, the protein samples were analyzed using SDS-PAGE under reducing condition, transferred to nitrocellulose blotting membranes, and incubated with primary antibodies overnight at 4° C., followed by incubation with HRP-conjugated secondary antibodies for 1 hour at room temperature before autoradiography. […]

[4] = Copper-free click reaction of DBCO-activated biotin on donor lung during cold preservation; design: species or system rat; settings: DBCO-activated biotin 100 μM in Perfadex on ice, within one hour
Protocol: The procedure involves two steps. In the first step, the donor rat was injected with Ac4GalNAz for three days (as described in Example 4). This allowed for metabolic labeling of the donor lung with azido tags. In the second step, the donor lung with azido labeling was preserved in preservation solution (Perfadex) containing DBCO-activated biotin at 100 μM concentration on ice for 1 hour. The lung was then intensively washed with preservation solution (Perfadex) and prepared for transplantation. The lung is fixed for histological staining of the immobilized biologically active molecule (as exemplified by biotin).
DBCO-activated biotin was used a proof-of-principle.

[5] = Click reaction of azide-labeled decellularized rat epigastric flaps with Vancomycin-alkyne; settings: Ac4GalNAz-labeled REF versus DMSO control, Vancomycin-alkyne 100 μM click
Protocol: Vancomycin is made clickable by conjugating an alkyne group to the only primary amine present as described above (see, e.g., FIG. 22, Example 3). The structure of the resulting clickable vancomycin-alkyne was confirmed by LC-MS/MS analysis (FIG. 23). Using the previously described click reaction, Vancomycin was immobilized onto the ECM. Copper-catalyzed click reaction was performed on decellularized rat epigastric flaps by perfusion (0.5 ml/min) using Vancomycin-alkyne (100 μM) and Click-iT® Cell Reaction Buffer Kit (ThermoFisher, Catalog number: C10269) for one hour at room temperature, followed by intensive washing and detection of immobilized vancomycin using a vancomycin-specific antibody.

Question: For CC(=O)OC[C@H]1OC(OC(C)=O)[C@H](NC(=O)CN=[N+]=[N-])[C@@H](OC(C)=O)[C@H]1OC(C)=O (stereo partly shown) [Ac4GalNAz, tetraacylated N-azidoacetylgalactosamine], which “in vivo metabolic azide labeling of decellularized scaffolds” value ([1]; rat carotid artery, heart, liver, kidney and skin, three-day intraperitoneal administration) is on record?
Answer: efficient; also recorded: strong and specific ECM labeling

Question: And the “metabolic labeling of decellularized scaffolds of blood vessels and skin flaps” value ([1]; rat, 3 days of metabolic labeling)?
Answer: efficient metabolic labeling

Question: And the “metabolic labeling efficiency of decellularized rat lung scaffolds” value ([2]; 3 days of metabolic labeling in donor rats, comparing to Ac4GlcNAz and Ac4ManNAz)?
Answer: superior labeling efficiency

Question: What about the “biotin labeling of isolated lung ECM proteins by western blot” value ([2]; after click conjugation with biotin-alkyne) of the same compound?
Answer: abundance of biotin labeling

Question: What about the “metabolic azide labeling intensity in acellular lungs” value ([2]; azide-biotin-streptavidin intensity normalized to Laminin, compared with Ac4ManNAz and Ac4GlcNAz) of the same compound?
Answer: strongest

Question: And the “azide labeling of the lung ECM after ex vivo culture” value (rat lung ECM)?
Answer: robust covalent azide labeling

Question: What about the “azide incorporation into acellular porcine lung ECM after ex vivo culture” value [3] of the same compound?
Answer: specific and covalent azide incorporation

Question: Which “immobilization of biotin onto donor lung tissue” value [4] does the source give for O=C(O)CCCC[C@@H]1SC[C@@H]2NC(=O)N[C@@H]21 [biotin] here?
Answer: high efficiency

Question: With CN[C@H](CC(C)C)C(=O)N[C@H]1C(=O)N[C@@H](CC(N)=O)C(=O)N[C@H]2C(=O)N[C@H]3C(=O)N[C@H](C(=O)N[C@H](C(=O)O)c4cc(O)cc(O)c4-c4cc3ccc4O)[C@H](O)c3ccc(c(Cl)c3)Oc3cc2cc(c3O[C@@H]2O[C@H](CO)[C@@H](O)[C@H](O)[C@H]2O[C@H]2C[C@](C)(N)[C@H](O)[C@H](C)O2)Oc2ccc(cc2Cl)[C@H]1O [vancomycin, Vancomycin] as the compound, how does the “vancomycin staining fluorescence intensity on whole mount REF” value ([5]; p<0.001) read?
Answer: increase

Question: And the “vancomycin staining fluorescence intensity on REF cross-sections” value ([5]; p<0.05)?
Answer: increase
